For one assay, the system named is chick embryo retina. The assay is described as follows: In Vitro Chick Retina Assay (excitotoxic lesions by NMDA or KA). It is filed as cell-based. As to conditions: vs. NMDA 200 μM, 30 min at 37° C. The text has this:
[Olney, J. W., Price, M. T., Fuller, T. A., Labruyere, J., Samson, L., Carpenter, M., Mahan, K., "The Anti-Excitotoxic Effects of Certain Anesthetics, Analgesics and Sedative-Hypnotics", Neuroscience Letters, 68, 29-34, (1986)].
Using an approach similar to that earlier described [Reif-Lehrer, L., Bergenthal, J. and Hanninen, L., "Effects of Monosodium Glutamate on Chick Embryo Retina in Culture", Invest. Ophthalmol., 14, 114-12, (1975)], 15-day-old chick embryos were decapitated and their eyes removed and cut into quadrants after excising the cornea and removing the lens, vitreous and iris. The retinal quadrants were then gently separated from the pigment epithelium and incubated for 30 minutes at 37° C. in a standard balanced salt solution (BSS) to which test compounds, either excitatory amino acid agonists or potential antagonists or both, were added in various concentrations. As described elsewhere [Olney, J. W., Price, M. T., Samson, L. and Labruyere, J., "The Role of Specific Ions in Glutamate Neurotoxicity". Neurosci. […]

The subject of the next assay is CD-1 mouse. The assay can be described thus: In Vivo 3-MPA-Induced Convulsions (tonic hindlimb extension). As to conditions: Mus musculus. On the procedure:
In the CD-1 mouse, i.p. injection of 3-MPA produces clonic seizures, tonic hindlimb extension and death. Seizures begin within 2-3 minutes after injection. The dose-response for induction of tonus by 3-MPA is unusual. The incidence of tonus increases rapidly from 35 to 50 mg/kg and remains constant at a less than maximal level over a broad dose range. 3-MPA doses from 50 to 150 mg/kg produce tonus in approximately 75% of the treated mice. The incidence of death over this dose range is variable and less than maximal.
In order to test for antagonism of 3-MPA-induced tonus, the lowest dose of 3-MPA that produced tonus consistently in 75% of the animals (50 mg/kg i.p.) was chosen. Test compounds were administered subcutaneously 30-40 minutes prior to i.p. administration of 3-MPA. Immediately after 3-MPA administration, each mouse was placed in a small cage made of steel rods. The mice were then observed for the presence or absence of tonic hindlimb extension. Reduction (from 75%) in the incidence of tonic hindlimb extension was considered protection from 3-MPA-induced convulsions. The dose of the test compound varied using groups of ten mice per dose until dose response curves are constructed, and ED50 's are calculated.

A further assay relates to hippocampal neurons. The assay can be described thus: Hypoxia Survival Assay, cultured hippocampal neurons (MTT). The settings on record: 50 μM compound. It is filed as cell-based, Sprague-Dawley rat. On the procedure:
Hippocampal neurons were obtained from embryonic day 17 Sprague-Dawley rats. The brains were removed and the hippocampus dissected, placed in ice-cold Leibovitz L-15 medium, carefully stripped of any remaining meninges, and minced into small pieces using scissors. The tissue was rinsed with calcium-magnesium-free Hanks' Balanced Salt Solution and incubated with 0.25% trypsin (Worthington), 40 μg/ml DNAase (Sigma) for 30 minutes at 36° C. Following incubation, the cells were rinsed with 10% serum-containing medium and dissociated by gentle trituration using a reduced bore diameter Pasteur pipet. […]
The neuronal survival assay utilized the compound MTT [3-(4,5-dimethylthiazol-2-yl)-2,5-diphenyl tetrazolium bromide], a pale yellow substrate that is cleaved by the mitochondrial enzyme succinate-dehydrogenase to yield a dark blue formazan product. […] The precipitate was then solubilized using 0.08N HCl/isopropanol mixture and the absorbance measured with an ELISA plate reader (Dynatech MR600) using a test wavelength of 570 nm and a reference wavelength of 630 nm. […]
The cells were grown for 2-3 weeks in 5% CO2 -in-air humidified environment at 36° C. to establish a thick network of neuronal processes with numerous spontaneously active synapses. […] Following 2 hours of exposure to normal O2 tension, the cultures were processed for morphological and quantitive biochemical neuronal cell viability assays.

The results in this text go back to patent publication US4918064A, “Phenyl glycines for use in reducing neurotoxic injury” (G. D. Searle & Co., priority 1987, dated 1990).

Where two headings read alike, the source gives them in different places.

On to `NC(C(=O)O)c1ccc(CP(=O)(O)O)cc1` (stereo not shown) [Example VI, 4-(Phosphonomethyl)phenylglycine], for which the “concentration for full antagonism against NMDA (complete prevention of toxic activity)” value in the assay with chick embryo retina stood at 50 µM. Besides, the ED50 (in general, the dose that gives a 50% effect, or the effect in half of the subjects) in the assay on CD-1 mouse (po, i.g., 3-MPA 50 mg/kg i.p., read-out: 3-MPA Convulsions i.g. (ED50)) was 300 mg/kg; with CD-1 mouse (sc, s.c. 30-40 minutes prior to 3-MPA 50 mg/kg i.p., read-out: 3-MPA Convulsions s.c. (ED50)) it was 6 mg/kg. In the assay with hippocampal neurons, the “protection of neurons from hypoxic insult” value is “Maximum protection of neurons from hypoxic insult”.
